Experimental data taken from ChEMBL document CHEMBL2396570, “Structural basis for the design and synthesis of selective HDAC inhibitors” (Bioorg Med Chem, 2013).

How the values were obtained:
Homo sapiens [1] = species on record: Homo sapiens; assay: Selectivity ratio for human HDAC4 over human HDAC3
Homo sapiens [2] = species on record: Homo sapiens; assay: Selectivity ratio for human HDAC4 over human HDAC8
Homo sapiens [3] = species on record: Homo sapiens; assay: Selectivity ratio for human HDAC4 over human HDAC1
Homo sapiens [4] = species on record: Homo sapiens; assay: Selectivity ratio for human HDAC4 over human HDAC2

- Selectivity ratio (Homo sapiens [1]): 176
- Selectivity ratio (Homo sapiens [2]): 176
- Selectivity ratio (Homo sapiens [3]): 176
- Selectivity ratio (Homo sapiens [4]): 176
SMILES: Cn1cc(/C=C/C(=O)c2cccc(F)c2)cc1/C=C/C(=O)NO
